Key:
Experiment in all cases: Greenhouse pot test, postemergent spray, visual control rating converted to percent control
Assay type in all cases: in vivo
[1] = system: crabgrass
Procedure: (§1) Pots of crabgrass, dandelion, white clover, and plantain grown in greenhouse soiless growth media were sprayed with a greenhouse pot sprayer at 43.46 gallons of spray solution/acre and allowed to stand in the greenhouse. Visual observation of the effects made by the herbicidal compositions on the plants in the test pots was recorded for control of crabgrass, dandelion, clover and plantain at 24 hours after treatment (HAT), 48 hours after treatment (HAT), 72 hours after treatment (HAT), 7 days after treatment (DAT), 14 days after treatment (DAT) and 21 days after treatment (DAT). A control rating scale of 1 to 9 was used to record the visual observation of the effect of the herbicidal composition on the plants over the time period of the tests. 1=no control, and 9=death of plant, with intervening numbers representing successive degrees of observed effectiveness of the herbicidal composition over time. The 1-9 control rating scale was converted to percent control in the test data charts that follow.
(§2) The test protocol of S. R. Colby as set out in his article entitled “Calculating Synergistic and Antagonistic Responses of Herbicide Compositions,” received for publication Apr. 11, 1966, Contribution No. 3796 and Scientific Article No. 1271 of the Maryland Agricultural Experiment Station, Department pf Agronomy, University of Maryland was followed to evaluate the synergistic properties of the combination of quinclorac plus a herbicidal protox inhibitor, and a combination of quinclorac, plus a herbicidal protox inhibitor plus a herbicidal auxinic agent as compared with the individual herbicides, using Colby's formulas E=X+Y−XY/100 for a two herbicide combination, where E=the expected percent of inhibition of growth by herbicides, X=the percent inhibition of growth by herbicide A at p lb/A, and Y=the percent inhibition of growth by herbicide B at q lb/A, for a given combination of two herbicides. Colby's formula E=X+Y+Z−(XY+XZ+YZ)/100+XYZ/10,000, was used for the three-way herbicide combination evaluation, where E, X and Y are the same as in the two herbicide formula and Z=the percent inhibition of growth by the third herbicide.

[2] = system: white clover
Procedure: as §1, §2

[3] = system: dandelion
Procedure: as §1, §2

Cc1nn(-c2cc(NS(C)(=O)=O)c(Cl)cc2Cl)c(=O)n1C(F)F [Sulfentrazone, reference compound]
% Control Crabgrass ([1]; Test 2, 7 DAT, 0.02 lbs/A): 22.2%
Control (1-9) Crabgrass ([1]; Test 2, 7 DAT, 0.02 lbs/A): 2
% Control Crabgrass ([1]; Test 2, 7 DAT, 0.03 lbs/A): 22.2%
Control (1-9) Crabgrass ([1]; Test 2, 7 DAT, 0.03 lbs/A): 2
% Control Crabgrass ([1]; Test 2, 14 DAT, 0.02 lbs/A): 22.2%
Control (1-9) Crabgrass ([1]; Test 2, 14 DAT, 0.02 lbs/A): 2
% Control Crabgrass ([1]; Test 2, 14 DAT, 0.03 lbs/A): 22.2%
Control (1-9) Crabgrass ([1]; Test 2, 14 DAT, 0.03 lbs/A): 2
% Control Crabgrass ([1]; Test 2, 24 HAT, 0.02 lbs/A): 33.3%
Control (1-9) Crabgrass ([1]; Test 2, 24 HAT, 0.02 lbs/A): 3
% Control Crabgrass ([1]; Test 2, 24 HAT, 0.03 lbs/A): 44.4%
Control (1-9) Crabgrass ([1]; Test 2, 24 HAT, 0.03 lbs/A): 4
% Control Crabgrass ([1]; Test 2, 72 HAT, 0.02 lbs/A): 33.3%
Control (1-9) Crabgrass ([1]; Test 2, 72 HAT, 0.02 lbs/A): 3
% Control Crabgrass ([1]; Test 2, 72 HAT, 0.03 lbs/A): 33.3%
Control (1-9) Crabgrass ([1]; Test 2, 72 HAT, 0.03 lbs/A): 3
% Control Clover ([2]; Test 2, 7 DAT, 0.02 lbs/A): 77.8%
Control (1-9) Clover ([2]; Test 2, 7 DAT, 0.02 lbs/A): 7
% Control Clover ([2]; Test 2, 7 DAT, 0.03 lbs/A): 55.6%
Control (1-9) Clover ([2]; Test 2, 7 DAT, 0.03 lbs/A): 5
% Control Clover ([2]; Test 2, 14 DAT, 0.02 lbs/A): 77.8%
Control (1-9) Clover ([2]; Test 2, 14 DAT, 0.02 lbs/A): 7
% Control Clover ([2]; Test 2, 14 DAT, 0.03 lbs/A): 66.7%
Control (1-9) Clover ([2]; Test 2, 14 DAT, 0.03 lbs/A): 6
% Control Clover ([2]; Test 2, 24 HAT, 0.02 lbs/A): 22.2%
Control (1-9) Clover ([2]; Test 2, 24 HAT, 0.02 lbs/A): 2
% Control Clover ([2]; Test 2, 24 HAT, 0.03 lbs/A): 22.2%
Control (1-9) Clover ([2]; Test 2, 24 HAT, 0.03 lbs/A): 2
% Control Clover ([2]; Test 2, 72 HAT, 0.02 lbs/A): 33.3%
Control (1-9) Clover ([2]; Test 2, 72 HAT, 0.02 lbs/A): 3
% Control Clover ([2]; Test 2, 72 HAT, 0.03 lbs/A): 22.2%
Control (1-9) Clover ([2]; Test 2, 72 HAT, 0.03 lbs/A): 2
% Control Dandelion ([3]; Test 2, 7 DAT, 0.02 lbs/A): 88.9%
Control (1-9) Dandelion ([3]; Test 2, 7 DAT, 0.02 lbs/A): 8
% Control Dandelion ([3]; Test 2, 7 DAT, 0.03 lbs/A): 88.9%
Control (1-9) Dandelion ([3]; Test 2, 7 DAT, 0.03 lbs/A): 8
% Control Dandelion ([3]; Test 2, 14 DAT, 0.02 lbs/A): 88.9%
Control (1-9) Dandelion ([3]; Test 2, 14 DAT, 0.02 lbs/A): 8
% Control Dandelion ([3]; Test 2, 14 DAT, 0.03 lbs/A): 88.9%
Control (1-9) Dandelion ([3]; Test 2, 14 DAT, 0.03 lbs/A): 8
% Control Dandelion ([3]; Test 2, 24 HAT, 0.02 lbs/A): 22.2%
Control (1-9) Dandelion ([3]; Test 2, 24 HAT, 0.02 lbs/A): 2
% Control Dandelion ([3]; Test 2, 24 HAT, 0.03 lbs/A): 22.2%
Control (1-9) Dandelion ([3]; Test 2, 24 HAT, 0.03 lbs/A): 2
% Control Dandelion ([3]; Test 2, 72 HAT, 0.02 lbs/A): 44.4%
Control (1-9) Dandelion ([3]; Test 2, 72 HAT, 0.02 lbs/A): 4
% Control Dandelion ([3]; Test 2, 72 HAT, 0.03 lbs/A): 44.4%
Control (1-9) Dandelion ([3]; Test 2, 72 HAT, 0.03 lbs/A): 4

CC(C)CCCCCOC(=O)COc1ccc(Cl)cc1Cl [2,4-D IOE]
% Control Crabgrass ([1]; Test 1, 7 DAT, 0.70 lbs/A): 44.4%
Control (1-9) Crabgrass ([1]; Test 1, 7 DAT, 0.70 lbs/A): 4
% Control Crabgrass ([1]; Test 1, 14 DAT, 0.70 lbs/A): 33.3%
Control (1-9) Crabgrass ([1]; Test 1, 14 DAT, 0.70 lbs/A): 3
% Control Crabgrass ([1]; Test 1, 24 HAT, 0.70 lbs/A): 22.2%
Control (1-9) Crabgrass ([1]; Test 1, 24 HAT, 0.70 lbs/A): 2
% Control Crabgrass ([1]; Test 1, 48 HAT, 0.70 lbs/A): 44.4%
Control (1-9) Crabgrass ([1]; Test 1, 48 HAT, 0.70 lbs/A): 4
% Control Crabgrass ([1]; Test 2, 7 DAT, 0.70 lbs/A): 22.2%
Control (1-9) Crabgrass ([1]; Test 2, 7 DAT, 0.70 lbs/A): 2
% Control Crabgrass ([1]; Test 2, 14 DAT, 0.70 lbs/A): 22.2%
Control (1-9) Crabgrass ([1]; Test 2, 14 DAT, 0.70 lbs/A): 2
% Control Crabgrass ([1]; Test 2, 24 HAT, 0.70 lbs/A): 33.3%
Control (1-9) Crabgrass ([1]; Test 2, 24 HAT, 0.70 lbs/A): 3
% Control Crabgrass ([1]; Test 2, 72 HAT, 0.70 lbs/A): 66.7%
Control (1-9) Crabgrass ([1]; Test 2, 72 HAT, 0.70 lbs/A): 6
% Control Clover ([2]; Test 1, 7 DAT, 0.70 lbs/A): 44.4%
Control (1-9) Clover ([2]; Test 1, 7 DAT, 0.70 lbs/A): 4
% Control Clover ([2]; Test 1, 14 DAT, 0.70 lbs/A): 88.9%
Control (1-9) Clover ([2]; Test 1, 14 DAT, 0.70 lbs/A): 8
% Control Clover ([2]; Test 1, 24 HAT, 0.70 lbs/A): 11.1%
Control (1-9) Clover ([2]; Test 1, 24 HAT, 0.70 lbs/A): 1
% Control Clover ([2]; Test 1, 48 HAT, 0.70 lbs/A): 44.4%
Control (1-9) Clover ([2]; Test 1, 48 HAT, 0.70 lbs/A): 4
% Control Clover ([2]; Test 2, 7 DAT, 0.70 lbs/A): 66.7%
Control (1-9) Clover ([2]; Test 2, 7 DAT, 0.70 lbs/A): 6
% Control Clover ([2]; Test 2, 14 DAT, 0.70 lbs/A): 100.0%
Control (1-9) Clover ([2]; Test 2, 14 DAT, 0.70 lbs/A): 9
% Control Clover ([2]; Test 2, 24 HAT, 0.70 lbs/A): 33.3%
Control (1-9) Clover ([2]; Test 2, 24 HAT, 0.70 lbs/A): 3
% Control Clover ([2]; Test 2, 72 HAT, 0.70 lbs/A): 66.7%
Control (1-9) Clover ([2]; Test 2, 72 HAT, 0.70 lbs/A): 6
% Control Dandelion ([3]; Test 1, 7 DAT, 0.70 lbs/A): 66.7%
Control (1-9) Dandelion ([3]; Test 1, 7 DAT, 0.70 lbs/A): 6
% Control Dandelion ([3]; Test 1, 14 DAT, 0.70 lbs/A): 100.0%
Control (1-9) Dandelion ([3]; Test 1, 14 DAT, 0.70 lbs/A): 9
% Control Dandelion ([3]; Test 1, 24 HAT, 0.70 lbs/A): 33.3%
Control (1-9) Dandelion ([3]; Test 1, 24 HAT, 0.70 lbs/A): 3
% Control Dandelion ([3]; Test 1, 48 HAT, 0.70 lbs/A): 44.4%
Control (1-9) Dandelion ([3]; Test 1, 48 HAT, 0.70 lbs/A): 4
% Control Dandelion ([3]; Test 2, 7 DAT, 0.70 lbs/A): 88.9%
Control (1-9) Dandelion ([3]; Test 2, 7 DAT, 0.70 lbs/A): 8
% Control Dandelion ([3]; Test 2, 14 DAT, 0.70 lbs/A): 100.0%
Control (1-9) Dandelion ([3]; Test 2, 14 DAT, 0.70 lbs/A): 9
% Control Dandelion ([3]; Test 2, 24 HAT, 0.70 lbs/A): 33.3%
Control (1-9) Dandelion ([3]; Test 2, 24 HAT, 0.70 lbs/A): 3
% Control Dandelion ([3]; Test 2, 72 HAT, 0.70 lbs/A): 66.7%
Control (1-9) Dandelion ([3]; Test 2, 72 HAT, 0.70 lbs/A): 6
